Assays:
[1] = Ranges of arithmetic mean plasma pharmacokinetic parameters provided by the 300 mg solid oral dosage form (summary of the studies); format: in vivo; conditions: human, range of study means
Experimental: For example, the present invention provides a solid oral dosage form comprising about 300 mg of aliskiren free base, or a respective amount of a pharmaceutically acceptable salt thereof, and a carrier medium, said dosage form providing an arithmetic mean maximum plasma concentration of aliskiren ranging from about 186 to about 394 ng/mL between about 0.25 and about 6 hours following administration of a single dosage of said dosage form.
Furthermore, the present invention provides a solid oral dosage form comprising about 300 mg aliskiren free base, or a respective amount of a pharmaceutically acceptable salt thereof, and a carrier medium, said dosage form providing an arithmetic mean AUC0-96 of aliskiren ranging from about 1480 to about 1859 ng·h/mL following administration of a single dosage of said dosage form. […]
The above description fully discloses the invention including preferred embodiments thereof. […] Arithmetic means for Cmax are calculated using the actual time points when the Cmax is observed whereas for the mean concentration versus time plots the nominal time values are employed.

[2] = Single-dose four-period crossover pharmacokinetic study of 75, 150, 300 and 600 mg aliskiren (dosage form 3) in healthy volunteers (Example 3); format: in vivo; conditions: human, plasma; for Cmax / AUC(0-t) / AUC(0-inf): arithmetic mean (SD); for AUC(0-t): read-out: AUC0-96; for Tmax: median, dosage form 3, healthy subjects n = 30, fasted
Experimental: An open-label, single-dose, four-period, four-treatment, randomized crossover study with a 7-day washout between each period to compare the plasma concentrations of 75, 150, 300 and 600 mg of aliskiren (dosage form 3) in healthy volunteers was carried out. A total of 32 healthy subjects enrolled and 30 completed all study procedures and treatments. Subjects were screened during a 21-Day period and, if eligible, proceeded to a baseline visit prior to each treatment (four baseline evaluations in total). There was an end of study evaluation prior to discharge from the study site. Subjects were randomized into 4 dosing sequence groups with 8 subjects per sequence. The subjects were admitted to the study center at least 12 hours prior to the initial dosing in each period for baseline evaluations, and were confined to the clinic for at least 48 h post-dose in each period. Following an inter-dose interval of at least 7 days, each subject returned to the study site to receive the alternate treatment as per their randomization schedule. All subjects received each of the 75, 150, 300 and 600 mg treatments once during the study according to a randomization schedule. Plasma samples for determination of aliskiren were obtained over 96 hour period after the dose in each treatment segment. For all treatment periods, subjects fasted for a minimum of 10 hours pre-dose to 4 hours post-dose. Subjects were considered to have completed the study when all safety and pharmacokinetic evaluations had been completed.
Blood samples were collected to determine the pharmacokinetics following a single oral dose of 75, 150, 300 or 600 mg of aliskiren. Plasma concentrations of aliskiren were used to determine the pharmacokinetic parameters using non-compartmental methods, and the data are summarized in FIGS. 1, 2, and 3, and Table 1.

[3] = Single and multiple dose 300 mg pharmacokinetic study in Japanese and Caucasian healthy male subjects (Example 5); format: in vivo, human; conditions: for Cavg^SS / AUC(0-t) / Cmax / AUC: arithmetic mean (SD); for Tmax / AUC(0-t) / Cmax / AUC: male, human, plasma, oral, 300 mg; for Tmax: Median (minimum-maximum); for AUC(0-t): read-out: AUC0-72; for AUC: read-out: AUC0-τ
Experimental: An open label, non-randomized, single center, parallel group single and multiple dose study in healthy male subjects was carried out. Two parallel groups, one Japanese (n=19), the other Caucasian (n=19), age (±5 years) and weight matched (±25%), were enrolled in this study. Each subject participated in a 21-day screening period, a baseline period (Day −1), a 10 day treatment period (Days 1-10) and a study completion evaluation 4-7 days after the last PK sample. Each subject received a single 300 mg oral dose of aliskiren (dosage form 3) on Day 1 with 72 hour PK sampling, followed by multiple (once a day for 7 days) 300 mg oral doses of aliskiren on Days 4 through to 10. All administrations of aliskiren were given following a 10 hour fast. Subjects were domiciled in the study center from Day −1 (baseline) until the 24 hour post last-dose evaluations were completed oh Day 11.
Blood samples were collected to determine the pharmacokinetics following a single oral dose of 300 mg of aliskiren and multiple doses (once daily) of aliskiren 300 mg. Plasma concentrations of aliskiren were used to determine the pharmacokinetic parameters using non-compartmental methods, and the data are summarized in FIGS. 5 and 6, and Tables 4 and 5.

[4] = Hygroscopicity of the drug substance; format: physicochemical
[5] = single oral dose 75 mg, healthy subjects n = 30
[6] = single oral dose 150 mg, healthy subjects n = 30
[7] = single oral dose 300 mg, healthy subjects n = 30
[8] = single oral dose 600 mg, healthy subjects n = 30
[9] = steady state, 300 mg once a day, Caucasian subjects
[10] = steady state, 300 mg once a day, Japanese subjects

For COCCCOc1cc(C[C@@H](C[C@H](N)[C@@H](O)C[C@H](C(=O)NCC(C)(C)C(N)=O)C(C)C)C(C)C)ccc1OC [aliskiren, 2(S),4(S),5(S),7(S)—N-(3-amino-2,2-dimethyl-3-oxopropyl)-2,7-di(1-methylethyl)-4-hydroxy-5-amino-8-[4-methoxy-3-(3-methoxy-propoxy)phenyl]-octanamide], which AUC ([1]; about 300 mg every 24 hours, steady state, read-out: arithmetic mean AUC0-τ of aliskiren) is on record?
The AUC was 1670 to 2520 ng·h/mL.

And the AUC(0-t) ([1]; single dosage of about 300 mg free base, read-out: arithmetic mean AUC0-96 of aliskiren)?
The AUC(0-t) was 1480 to 1860 ng·h/mL.

And the Cmax [2, 5]?
Its Cmax is 26 ng/mL.

And the AUC(0-t) [2, 5]?
The AUC(0-t) was 266 ng·h/mL.

And the AUC(0-inf) ([2]; single oral dose 75 mg, healthy subjects, n = 23)?
Its AUC(0-inf) is 356 ng·h/mL.

What about the Cmax [2, 6] of the same molecule?
The Cmax was 72 ng/mL.

What about the AUC(0-t) [2, 6] of the same molecule?
The AUC(0-t) was 530 ng·h/mL.

What about the AUC(0-inf) ([2]; single oral dose 150 mg, healthy subjects, n = 29) of the same molecule?
The AUC(0-inf) was 627 ng·h/mL.

And the AUC(0-inf) [2, 7]?
Its AUC(0-inf) is 1620 ng·h/mL.

And the Cmax [2, 7]?
The Cmax was 202 ng/mL.

And the AUC(0-t) [2, 7]?
The AUC(0-t) was 1480 ng·h/mL.

What about the AUC(0-inf) [2, 8] of the same molecule?
The AUC(0-inf) was 3520 ng·h/mL.

And the Cmax [2, 8]?
Its Cmax is 420 ng/mL.

And the AUC(0-t) [2, 8]?
Its AUC(0-t) is 3240 ng·h/mL.

What about the Tmax ([2]; single oral dose 75 mg) of the same molecule?
The Tmax was 1 h.

What about the Tmax ([2]; single oral dose 150 mg) of the same molecule?
The Tmax was 2.5 h.

What about the Tmax ([2]; single oral dose 300 mg) of the same molecule?
Its Tmax is 3 h.

What about the Tmax ([2]; single oral dose 600 mg) of the same molecule?
The Tmax was 2 h.

And the “Cavg^SS” value [3, 9]?
The value was 89 (33) ng/mL.

What about the “Cavg^SS” value [3, 10] of the same molecule?
Its value is 105 (49) ng/mL.

And the Tmax ([3]; single dose 300 mg, Caucasian subjects n=19, fasted, read-out: Tmax)?
Its Tmax is 2 h.

What about the Tmax ([3]; single dose 300 mg, Japanese subjects n=19, fasted, read-out: Tmax) of the same molecule?
Its Tmax is 2 h.

What about the Tmax ([3]; steady state, 300 mg once a day, Caucasian subjects, read-out: Tmax^SS) of the same molecule?
The Tmax was 2 h.

And the Tmax ([3]; steady state, 300 mg once a day, Japanese subjects, read-out: Tmax^SS)?
The Tmax was 4 h.

And the AUC(0-t) ([3]; single dose 300 mg, Caucasian subjects n=19)?
The AUC(0-t) was 1120 ng·h/mL.

What about the Cmax ([3]; single dose 300 mg, Caucasian subjects n=19, read-out: Cmax) of the same molecule?
The Cmax was 186 ng/mL.

And the AUC(0-t) ([3]; single dose 300 mg, Japanese subjects n=19)?
Its AUC(0-t) is 1390 ng·h/mL.

What about the Cmax ([3]; single dose 300 mg, Japanese subjects n=19, read-out: Cmax) of the same molecule?
Its Cmax is 215 ng/mL.

What about the AUC [3, 9] of the same molecule?
Its AUC is 2140 ng·h/mL.

What about the Cmax ([3]; steady state, 300 mg once a day, Caucasian subjects, read-out: Cmax^SS) of the same molecule?
Its Cmax is 321 ng/mL.

What about the AUC [3, 10] of the same molecule?
The AUC was 2520 ng·h/mL.

What about the Cmax ([3]; steady state, 300 mg once a day, Japanese subjects, read-out: Cmax^SS) of the same molecule?
Its Cmax is 403 ng/mL.

And the hygroscopicity [4]?
Its hygroscopicity is “highly hygroscopic”.

From patent US20080269343A1, “GALENIC FORMULATIONS OF ORGANIC COMPOUNDS” (priority 2004, published 2008)
